For 17 molecules, IC50 and GI50 results are on record in patent US11878973B2, “Bicyclic compounds and their uses” (NOVARTIS AG, priority 2021, dated 2024).

Test [1] deals with WRN helicase (Homo sapiens (Human), UniProt Q14191). Nature of the test: In vitro enzymatic activity assay on WRN helicase (DNA dependent ATPase assay, ADP-Glo). The class given is biochemical. The settings on record: geometric means of at least 2 determinations; read-out: WRN ATPase Activity (IC50). An outline of the steps: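 DNA-dependent ATPase activity was measured by ADP-Glo luminescent ADP detection after a 30-min room-temperature reaction. The reaction contained 10 nM WRN (residues N517-P1238), 0.2 nM FLAP26 and 300 µM ATP at pH 7.5 with 2 mM MgCl2. Compounds were tested as 10-point half-log series in duplicate; IC50 values are geometric means from at least two independent experiments.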
WRN helicase, sequence (Q14191 517-1238): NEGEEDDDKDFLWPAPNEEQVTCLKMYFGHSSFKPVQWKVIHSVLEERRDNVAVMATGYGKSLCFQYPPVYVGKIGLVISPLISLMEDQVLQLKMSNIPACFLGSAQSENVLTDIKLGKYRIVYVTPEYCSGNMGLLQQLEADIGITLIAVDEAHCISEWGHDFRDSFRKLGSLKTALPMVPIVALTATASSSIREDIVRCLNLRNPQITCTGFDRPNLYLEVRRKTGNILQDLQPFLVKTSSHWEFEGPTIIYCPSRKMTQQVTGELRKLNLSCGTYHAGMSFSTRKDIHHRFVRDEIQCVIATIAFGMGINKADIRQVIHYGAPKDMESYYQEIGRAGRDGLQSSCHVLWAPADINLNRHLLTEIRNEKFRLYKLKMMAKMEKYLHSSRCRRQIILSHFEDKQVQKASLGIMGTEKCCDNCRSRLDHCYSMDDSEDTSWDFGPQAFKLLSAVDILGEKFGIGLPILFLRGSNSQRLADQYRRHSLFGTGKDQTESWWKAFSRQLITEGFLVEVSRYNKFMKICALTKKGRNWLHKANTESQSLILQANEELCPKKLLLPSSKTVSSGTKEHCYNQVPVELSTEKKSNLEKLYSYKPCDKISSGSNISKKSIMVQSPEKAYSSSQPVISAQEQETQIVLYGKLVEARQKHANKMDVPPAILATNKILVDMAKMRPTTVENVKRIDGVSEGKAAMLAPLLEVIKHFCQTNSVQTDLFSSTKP

Test [2] has as its system SW48 cells. Briefly: Proliferation assay SW48 (CellTiterGlo, 96 hours). The note with it: Homo sapiens, SW48, read-out: Proliferation Assay SW48 (GI50). In general terms: ATP-based viability assays read luminescence as a measure of living cells.
In test [3] the test system is DLD1-WRN-KO cells. Briefly: Proliferation assay DLD1-WRN-KO (CellTiterGlo, 96 hours; off-target effects). The settings on record: Homo sapiens, read-out: Proliferation Assay DLD1-WRN-KO (GI50).
Protocol: The WRN-knockdown insensitive colon carcinoma cell line DLD-1 (RRID: CVCL_0248) was obtained from the Korean Cell Line Bank (KCLB), and used to generate a derivative in which the endogenous WRN gene copies were knocked out by CRISPR-mediated editing using standard CRISPR methods. The resulting cell line, DLD1-WRN—KO, was used to assess potential off-target compound effects.
All cells were maintained at 37° C. in a humidified 5% CO2 incubator.
For data analysis, the assay background signal that was determined in wells containing medium, but no cells, was subtracted from all other data points prior to further calculations. The extent of growth inhibition and potential cell kill was assessed by comparing the ATP levels (measured using CellTiterGlo, Promega) in compound-treated cells with those present at the time of compound addition. […] 100%, 0% and −100% signify absence of growth inhibition, growth stasis, and complete cell kill, respectively. Compound concentrations leading to half-maximal growth inhibition (G150) and residual cell viability at the highest tested compound concentration (Data (cmax), expressed in percent) were routinely calculated. Data analysis can also be carried out using commercially available software designed to derive IC50 values using 4-parameter fits (e.g. GraphPad Prism, XL fit). The reported GI50 values are the geometrical means of at least 2 independent replicates.

As a reminder, the IC50 is the concentration at which inhibition is half-maximal. `CCc1c(N2CCN(C(=O)c3ncccc3O)CC2)c(=O)n2nc(C3=CCCCO3)nc2n1CC(=O)Nc1ccc(C(F)(F)F)nc1Cl` [Example 29, N-(2-chloro-6-(trifluoromethyl)pyridin-3-yl)-2-(2-(3,4-dihydro-2H-pyran-6-yl)-5-ethyl-6-(4-(3-hydroxypicolinoyl)piperazin-1-yl)-7-oxo-[1,2,4]triazolo[1,5-a]pyrimidin-4(7H)-yl)acetamide]: the IC50 in test [1] is 90 nM. In addition, the GI50 in test [2] is 50 nM; in test [3], more than 10000 nM.
In the case of `CCc1c(N2CCN(C(=O)c3ncccc3O)CC2)c(=O)n2nc(N3CCN(CC(=O)O)CC3)nc2n1CC(=O)Nc1ccc(C(F)(F)F)cc1Cl` [Example 82, 2-(4-(4-(2-((2-chloro-4-(trifluoromethyl)phenyl)amino)-2-oxoethyl)-5-ethyl-6-(4-(3-hydroxypicolinoyl)piperazin-1-yl)-7-oxo-4,7-dihydro-[1,2,4]triazolo[1,5-a]pyrimidin-2-yl)piperazin-1-yl)acetic acid], the IC50 in test [1] was 280 nM. In addition, the values for the GI50 in test [2] and in test [3] were 7720 nM and more than 10000 nM, respectively.
In the case of `CCc1c(N2CCN(C(=O)c3ncnc(C)c3O)CC2)c(=O)n2nc(C3=CCOCC3)nc2n1CC(=O)Nc1cc(F)c(C(F)(F)F)cc1C` [Example 50, 2-(2-(3,6-dihydro-2H-pyran-4-yl)-5-ethyl-6-(4-(5-hydroxy-6-methylpyrimidine-4-carbonyl)piperazin-1-yl)-7-oxo-[1,2,4]triazolo[1,5-a]pyrimidin-4(7H)-yl)-N-(5-fluoro-2-methyl-4-(trifluoromethyl)phenyl)acetamide], the IC50 in test [1] was 30 nM. The GI50 in test [2] was 50 nM; in test [3], more than 10000 nM.
As to `CCc1c(N2CCN(C(=O)c3nccc(Cl)c3O)CC2)c(=O)n2nc(C3=COCCO3)nc2n1CC(=O)Nc1ccc(C(F)(F)F)cc1C` [Example 78, 2-(6-(4-(4-chloro-3-hydroxypicolinoyl)piperazin-1-yl)-2-(5,6-dihydro-1,4-dioxin-2-yl)-5-ethyl-7-oxo-[1,2,4]triazolo[1,5-a]pyrimidin-4(7H)-yl)-N-(2-methyl-4-(trifluoromethyl)phenyl)acetamide], in test [1], the IC50 was 80 nM. For the same molecule, the GI50 was 300 nM in test [2] and more than 10000 nM in test [3].
The like results for `CCc1c(N2CCN(C(=O)c3ncccc3O)CC2)c(=O)n2nc(C3=CCOCC3)nc2n1CC(=O)Nc1cc(C(F)(F)F)c(Cl)cc1C` [Example 103, N-(4-chloro-2-methyl-5-(trifluoromethyl)phenyl)-2-(2-(3,6-dihydro-2H-pyran-4-yl)-5-ethyl-6-(4-(3-hydroxypicolinoyl)piperazin-1-yl)-7-oxo-[1,2,4]triazolo[1,5-a]pyrimidin-4(7H)-yl)acetamide] were, in that order, 100 nM, 250 nM and more than 10000 nM.
For the molecule `CCc1c(N2CCN(C(=O)c3nccc(Cl)c3O)CC2)c(=O)n2nc(C3=CCOCC3)nc2n1CC(=O)Nc1ccc(C(F)(F)F)nc1C` [Example 36, 2-(6-(4-(4-chloro-3-hydroxypicolinoyl)piperazin-1-yl)-2-(3,6-dihydro-2H-pyran-4-yl)-5-ethyl-7-oxo-[1,2,4]triazolo[1,5-a]pyrimidin-4(7H)-yl)-N-(2-methyl-6-(trifluoromethyl)pyridin-3-yl)acetamide], in test [1], the IC50 was 930 nM. Also, the GI50 in test [2] was 1780 nM; in test [3], more than 10000 nM.
The like results for `Cc1nc(C(F)(F)F)ccc1NC(=O)Cn1c(C)c(N2CCN(C(=O)c3ncccc3O)CC2)c(=O)n2nc(C3=CCOCC3)nc12` [Example 129, 2-(2-(3,6-dihydro-2H-pyran-4-yl)-6-(4-(3-hydroxypicolinoyl)piperazin-1-yl)-5-methyl-7-oxo-[1,2,4]triazolo[1,5-a]pyrimidin-4(7H)-yl)-N-(2-methyl-6-(trifluoromethyl)pyridin-3-yl)acetamide] were, in that order, 500 nM, 2550 nM and more than 10000 nM.
The like results for `CCc1c(N2CCN(C(=O)c3ncccc3O)CC2)c(=O)n2nc(C3=CCOCC3)nc2n1CC(=O)Nc1cc(Cl)c(C(F)(F)F)nc1C` [Example 102, N-(5-chloro-2-methyl-6-(trifluoromethyl)pyridin-3-yl)-2-(2-(3,6-dihydro-2H-pyran-4-yl)-5-ethyl-6-(4-(3-hydroxypicolinoyl)piperazin-1-yl)-7-oxo-[1,2,4]triazolo[1,5-a]pyrimidin-4(7H)-yl)acetamide] were, in that order, 90 nM, 170 nM and more than 10000 nM.
For `CCc1c(N2CCN(C(=O)c3ncnc(C)c3O)CC2)c(=O)n2nc(C3=CCOCC3)nc2n1CC(=O)Nc1cc(F)c(C(F)F)cc1C` [Example 53, N-(4-(difluoromethyl)-5-fluoro-2-methylphenyl)-2-(2-(3,6-dihydro-2H-pyran-4-yl)-5-ethyl-6-(4-(5-hydroxy-6-methylpyrimidine-4-carbonyl)piperazin-1-yl)-7-oxo-[1,2,4]triazolo[1,5-a]pyrimidin-4(7H)-yl)acetamide] the same measures were 120 nM, 140 nM and more than 10000 nM.
Turning to `Cc1ccc(O)c(C(=O)N2CCN(c3c(C)n(CC(=O)Nc4ccc(C(F)(F)F)cc4)c4nc(C5=CCOCC5)nn4c3=O)CC2)n1` [Example 91, 2-(2-(3,6-dihydro-2H-pyran-4-yl)-6-(4-(3-hydroxy-6-methylpicolinoyl)piperazin-1-yl)-5-methyl-7-oxo-[1,2,4]triazolo[1,5-a]pyrimidin-4(7H)-yl)-N-(4-(trifluoromethyl)phenyl)acetamide], in test [1], the IC50 worked out at 80 nM. Besides, the GI50 was 320 nM in test [2] and more than 10000 nM in test [3].
As for `CCc1c(N2CCN(C(=O)c3ncccc3O)CC2)c(=O)n2nc(C3=CCOCC3)nc2n1CC(=O)Nc1ccc(C(F)(F)F)cc1Cl` [Example 96, N-(2-chloro-4-(trifluoromethyl)phenyl)-2-(2-(3,6-dihydro-2H-pyran-4-yl)-5-ethyl-6-(4-(3-hydroxypicolinoyl)piperazin-1-yl)-7-oxo-[1,2,4]triazolo[1,5-a]pyrimidin-4(7H)-yl)acetamide], in test [1], the 50% inhibitory concentration (IC50) was 60 nM. Also, the GI50 in test [2] was 60 nM; in test [3] it was more than 10000 nM.
For the molecule `CCc1c(N2CCN(C(=O)c3ncccc3O)CC2)c(=O)n2nc(C3=CCCCN3)nc2n1CC(=O)Nc1ccc(C(F)(F)F)cc1C` [Example 110, 2-(5-ethyl-6-(4-(3-hydroxypicolinoyl)piperazin-1-yl)-7-oxo-2-(1,4,5,6-tetrahydropyridin-2-yl)-[1,2,4]triazolo[1,5-a]pyrimidin-4(7H)-yl)-N-(2-methyl-4-(trifluoromethyl)phenyl)acetamide], the IC50 in test [1] came out at 360 nM. Besides, the values for the GI50 in test [2] and in test [3] were 1210 nM and more than 10000 nM, respectively.
For `CCc1c(N2CCN(C(=O)c3ncnc(C)c3O)C[C@H]2C)c(=O)n2nc(C3=CCOCC3)nc2n1CC(=O)Nc1ccc(C(F)(F)F)cc1Cl` [Example 88, (R)—N-(2-chloro-4-(trifluoromethyl)phenyl)-2-(2-(3,6-dihydro-2H-pyran-4-yl)-5-ethyl-6-(4-(5-hydroxy-6-methylpyrimidine-4-carbonyl)-2-methylpiperazin-1-yl)-7-oxo-[1,2,4]triazolo[1,5-a]pyrimidin-4(7H)-yl)acetamide] the same measures were 370 nM, 760 nM and more than 10000 nM.
The like results for `CCc1c(N2CCN(C(=O)c3ncccc3O)CC2)c(=O)n2nc(C3=CCOCC3)nc2n1CC(=O)Nc1cnc(C(F)(F)F)cc1Cl` [Example 33, N-(4-chloro-6-(trifluoromethyl)pyridin-3-yl)-2-(2-(3,6-dihydro-2H-pyran-4-yl)-5-ethyl-6-(4-(3-hydroxypicolinoyl)piperazin-1-yl)-7-oxo-[1,2,4]triazolo[1,5-a]pyrimidin-4(7H)-yl)acetamide] were, in that order, 260 nM, 220 nM and more than 10000 nM.
Turning to `CCc1c(N2CCN(C(=O)c3ncccc3O)CC2)c(=O)n2nc(N3CCCC(F)C3)nc2n1CC(=O)Nc1ccc(C(F)(F)F)nc1Cl` (racemic) [Example 16, rac-N-(2-chloro-6-(trifluoromethyl)pyridin-3-yl)-2-(5-ethyl-2-(3-fluoropiperidin-1-yl)-6-(4-(3-hydroxypicolinoyl)piperazin-1-yl)-7-oxo-[1,2,4]triazolo[1,5-a]pyrimidin-4(7H)-yl)acetamide], the IC50 in test [1] was determined as 230 nM. For the same molecule, the GI50 in test [2] was 320 nM; in test [3], more than 10000 nM.
The like results for `Cc1cc(Cl)ccc1NC(=O)Cn1c(C)c(N2CCN(C(=O)c3ncccc3O)CC2)c(=O)n2nc(C3=CCOCC3)nc12` [Example 105, N-(4-chloro-2-methylphenyl)-2-(2-(3,6-dihydro-2H-pyran-4-yl)-6-(4-(3-hydroxypicolinoyl)piperazin-1-yl)-5-methyl-7-oxo-[1,2,4]triazolo[1,5-a]pyrimidin-4(7H)-yl)acetamide] were, in that order, 200 nM, 1130 nM and more than 10000 nM.
For `CCc1c(N2CCN(C(=O)c3ncccc3O)CC2)c(=O)n2nc(C3=CCOCC3)nc2n1CC(=O)Nc1ccc(Cl)cc1Cl` [Example 101, N-(2,4-dichlorophenyl)-2-(2-(3,6-dihydro-2H-pyran-4-yl)-5-ethyl-6-(4-(3-hydroxypicolinoyl)piperazin-1-yl)-7-oxo-[1,2,4]triazolo[1,5-a]pyrimidin-4(7H)-yl)acetamide] the same measures were 100 nM, 210 nM and more than 10000 nM.
